The source of these data is ChEMBL document CHEMBL4414630, “Cyclobutastellettolides A and B, C19 Norterpenoids from a Stelletta sp. Marine Sponge” (J Nat Prod, 2019).

SMILES strings stand for the structures.

One assay deals with N2a. Kind of assay: Cytotoxicity against mouse Neuro2a cells assessed as inhibition of cell viability incubated for 24 hrs by MTT assay. Type of assay: cell-based.
The next assay relates to DLD-1. Kind of assay: Cytotoxicity against human DLD1 cells assessed as inhibition of cell viability incubated for 24 hrs by MTS assay. As to conditions: DLD-1, 24 h. It counts as cell-based. (Tetrazolium assays rely on reduction of a dye to a coloured formazan, in cell work by metabolically active cells.)
In a further assay the test system is HT-29. Kind of assay: Cytotoxicity against human HT-29 cells assessed as inhibition of cell viability incubated for 24 hrs by MTS assay. It counts as cell-based. The settings on record: HT-29, 24 h.
Assay [1] relates to Peritoneal macrophage. Kind of assay: Induction of ROS generation in BALB/c mouse peritoneal macrophages at 10 uM incubated for 1 hr by H2DCF-DA staining based fluorescence analysis relative to control. It counts as functional.
Assay [2] has as its system Peritoneal macrophage. Kind of assay: Induction of ROS generation in BALB/c mouse peritoneal macrophages at 1 uM incubated for 1 hr by H2DCF-DA staining based fluorescence analysis relative to control. It counts as functional.

As to `CC1(C)C(=O)CC[C@@]2(C)[C@H]1CC[C@]1(C)C(=O)[C@@]3(C)OC(=O)C[C@@]213`, the half-inhibitory concentration (IC50) in the assay with N2a, in the assay with DLD-1 and in the assay with HT-29 was greater than 40 µM each time. In addition, the Activity is 93% in the assay on Peritoneal macrophage [1] and 55% with Peritoneal macrophage [2].
As for `CC(=O)O[C@H]1CC[C@@]2(C)[C@@H](CC[C@]3(C)C(=O)[C@@]4(C)OC(=O)C[C@@]234)C1(C)C`, the IC50 with N2a, in the assay with DLD-1 and with HT-29 was greater than 40 µM throughout. The Activity is recorded as 90% in the assay with Peritoneal macrophage [1] and 73% in the assay with Peritoneal macrophage [2].

What is called IC50 is the midpoint of a concentration-inhibition curve.
